Like-named read-outs stand apart in the source and are kept apart here.
How the values were obtained:
Assay in all cases: biochemical
Format in all cases: binding
468 kinases [1] = target: 468 kinases (Homo sapiens, UniProt Q13555); conditions: CAMK2G; read-out: % Inhibition @ 100 nM
468 kinases [2] = target: 468 kinases (Homo sapiens, UniProt P42336, M1043I); conditions: PIK3CA(M10431); read-out: % Inhibition @ 100 nM
468 kinases [3] = target: 468 kinases (Homo sapiens, UniProt Q8TDR2); conditions: STK35; read-out: % Inhibition @ 100 nM
468 kinases [4] = target: 468 kinases (Homo sapiens, UniProt Q9HC98); conditions: NEK6; read-out: % Inhibition @ 100 nM
468 kinases [5] = target: 468 kinases (Homo sapiens, UniProt Q99558); conditions: NIK; read-out: % Inhibition @ 100 nM
468 kinases [6] = target: 468 kinases (Homo sapiens, UniProt Q96RR4); conditions: CAMKK2; read-out: % Inhibition @ 100 nM
468 kinases [7] = target: 468 kinases (Homo sapiens, UniProt Q13976); conditions: PRKG1; read-out: % Inhibition @ 100 nM
468 kinases [8] = target: 468 kinases (Homo sapiens, UniProt P51812); conditions: read-out: % Inhibition @ 100 nM
468 kinases [9] = target: 468 kinases (Homo sapiens, UniProt Q6P3R8); conditions: NEK5; read-out: % Inhibition @ 100 nM
468 kinases [10] = target: 468 kinases (Homo sapiens, UniProt Q16832); conditions: DDR2; read-out: % Inhibition @ 100 nM
468 kinases [11] = target: 468 kinases (Homo sapiens, UniProt O43293); conditions: DAPK3; read-out: % Inhibition @ 100 nM
468 kinases [12] = target: 468 kinases (Homo sapiens, UniProt Q16566); conditions: CAMK4; read-out: % Inhibition @ 100 nM
468 kinases [13] = target: 468 kinases (Homo sapiens, UniProt P11309); conditions: PIM1; read-out: % Inhibition @ 100 nM
468 kinases [14] = target: 468 kinases (Homo sapiens, UniProt P00519); conditions: read-out: % Inhibition @ 100 nM
468 kinases [15] = target: 468 kinases (Homo sapiens, UniProt Q8N4C8); conditions: MINK; read-out: % Inhibition @ 100 nM
468 kinases [16] = target: 468 kinases (Homo sapiens, UniProt Q96L34); conditions: MARK4; read-out: % Inhibition @ 100 nM
468 kinases [17] = target: 468 kinases (Homo sapiens, UniProt P07949); conditions: RET; read-out: % Inhibition @ 100 nM
468 kinases [18] = target: 468 kinases (Homo sapiens, UniProt P57078); conditions: RIPK4; read-out: % Inhibition @ 100 nM
468 kinases [19] = target: 468 kinases (Homo sapiens, UniProt Q13523); conditions: PRP4; read-out: % Inhibition @ 100 nM
468 kinases [20] = target: 468 kinases (Homo sapiens, UniProt Q9UKE5); conditions: TNIK; read-out: % Inhibition @ 100 nM
468 kinases [21] = target: 468 kinases (Homo sapiens, UniProt Q9Y2I7); conditions: PIKFYVE; read-out: % Inhibition @ 100 nM
468 kinases [22] = target: 468 kinases (Homo sapiens, UniProt Q16513); conditions: PKN2; read-out: % Inhibition @ 100 nM
468 kinases [23] = target: 468 kinases (Homo sapiens, UniProt P27361); conditions: ERK1; read-out: % Inhibition @ 100 nM
468 kinases [24] = target: 468 kinases (Homo sapiens, UniProt Q9BYP7); conditions: WNK3; read-out: % Inhibition @ 100 nM
468 kinases [25] = target: 468 kinases (Homo sapiens, UniProt P53671); conditions: LIMK2; read-out: % Inhibition @ 100 nM
468 kinases [26] = target: 468 kinases (Homo sapiens, UniProt P00519, H396P); conditions: read-out: % Inhibition @ 100 nM
468 kinases [27] = target: 468 kinases (Homo sapiens, UniProt P54762); conditions: EPHB1; read-out: % Inhibition @ 100 nM
468 kinases [28] = target: 468 kinases (Homo sapiens, UniProt P42336, Q546K); conditions: PIK3CA(Q546K); read-out: % Inhibition @ 100 nM
468 kinases [29] = target: 468 kinases (Homo sapiens, UniProt Q9UQM7); conditions: CAMK2A; read-out: % Inhibition @ 100 nM
468 kinases [30] = target: 468 kinases (Homo sapiens, UniProt Q04771); conditions: ACVR1; read-out: % Inhibition @ 100 nM
468 kinases [31] = target: 468 kinases (Homo sapiens, UniProt P42680); conditions: TEC; read-out: % Inhibition @ 100 nM
468 kinases [32] = target: 468 kinases (Homo sapiens, UniProt Q14680); conditions: MELK; read-out: % Inhibition @ 100 nM
468 kinases [33] = target: 468 kinases (Homo sapiens, UniProt P42681); conditions: TXK; read-out: % Inhibition @ 100 nM

| Structure (SMILES) | inhibition at 0.1 µM (468 kinases [1]) [%] | inhibition at 0.1 µM (468 kinases [2]) [%] | inhibition at 0.1 µM (468 kinases [3]) [%] | inhibition at 0.1 µM (468 kinases [4]) [%] | inhibition at 0.1 µM (468 kinases [5]) [%] | inhibition at 0.1 µM (468 kinases [6]) [%] | inhibition at 0.1 µM (468 kinases [7]) [%] | inhibition at 0.1 µM (468 kinases [8]; RSK2(Kin.Dom.1-N-terminal)) [%] | inhibition at 0.1 µM (468 kinases [9]) [%] | inhibition at 0.1 µM (468 kinases [10]) [%] | inhibition at 0.1 µM (468 kinases [11]) [%] | inhibition at 0.1 µM (468 kinases [12]) [%] | inhibition at 0.1 µM (468 kinases [13]) [%] | inhibition at 0.1 µM (468 kinases [14]; ABL1 -nonphosphorylated) [%] | inhibition at 0.1 µM (468 kinases [15]) [%] | inhibition at 0.1 µM (468 kinases [16]) [%] | inhibition at 0.1 µM (468 kinases [17]) [%] | inhibition at 0.1 µM (468 kinases [18]) [%] | inhibition at 0.1 µM (468 kinases [19]) [%] | inhibition at 0.1 µM (468 kinases [20]) [%] | also measured |
| --- | --- | --- | --- | --- | --- | --- | --- | --- | --- | --- | --- | --- | --- | --- | --- | --- | --- | --- | --- | --- | --- |
| CCN(CC)CCNC(=O)c1c(C)[nH]c(/C=C2\C(=O)Nc3ccc(CCO)cc32)c1C [Compound No. 10, (Z)—N-(2-(Diethylamino)ethyl)-5-((5-(2-hydroxyethyl)-2-oxoindolin-3-ylidene)methyl)-2,4-dimethyl-1H-pyrrole-3-carboxamide] | 8 | 0 | 21 | 19 | 17 | 29 | 0 | 39 | 0 | 12 | 5 | 0 | 0 | 54 | 91.8 | 41 | 55 | 12 | 87 | 86 | inhibition at 0.1 µM (468 kinases [8]; RSK2(Kin.Dom.2-C-terminal)): 54%; inhibition at 0.1 µM (468 kinases [14]; ABL1 -phosphorylated): 44%; inhibition at 0.1 µM (468 kinases [21]): 6%; inhibition at 0.1 µM (468 kinases [22]): 24%; inhibition at 0.1 µM (468 kinases [23]): 0%; inhibition at 0.1 µM (468 kinases [24]): 9%; inhibition at 0.1 µM (468 kinases [25]): 0%; inhibition at 0.1 µM (468 kinases [26]; ABL1 (H396P)-nonphosphorylated): 57%; inhibition at 0.1 µM (468 kinases [26]; ABL1 (H396P)-phosphorylated): 6%; inhibition at 0.1 µM (468 kinases [27]): 0%; inhibition at 0.1 µM (468 kinases [28]): 0%; inhibition at 0.1 µM (468 kinases [29]): 6%; inhibition at 0.1 µM (468 kinases [30]): 0%; inhibition at 0.1 µM (468 kinases [31]): 0%; inhibition at 0.1 µM (468 kinases [32]): 4%; inhibition at 0.1 µM (468 kinases [33]): 10% |
| CCN(CC)CCNC(=O)c1c(C)[nH]c(/C=C2\C(=O)Nc3ccc(CCC(N)=O)cc32)c1C [Compound No. 16, (Z)-5-((5-(3-Amino-3-oxopropyl)-2-oxoindolin-3-ylidene)methyl)-N-(2-(diethylamino)ethyl)-2,4-dimethyl-1H-pyrrole-3-carboxamide] | 18 | 12 | 15 | 0 | 16 | 49 | 14 | 59 | 19 | 27 | 21 | 0 | 0 | 36 | 81 | 12 | 60 | 14 | 76 | 55 | inhibition at 0.1 µM (468 kinases [21]): 27%; inhibition at 0.1 µM (468 kinases [22]): 18%; inhibition at 0.1 µM (468 kinases [23]): 13%; inhibition at 0.1 µM (468 kinases [24]): 7%; inhibition at 0.1 µM (468 kinases [25]): 17%; inhibition at 0.1 µM (468 kinases [26]; ABL1 (H396P)-nonphosphorylated): 66%; inhibition at 0.1 µM (468 kinases [27]): 8%; inhibition at 0.1 µM (468 kinases [28]): 3%; inhibition at 0.1 µM (468 kinases [29]): 45%; inhibition at 0.1 µM (468 kinases [30]): 18%; inhibition at 0.1 µM (468 kinases [31]): 0%; inhibition at 0.1 µM (468 kinases [32]): 16%; inhibition at 0.1 µM (468 kinases [33]): 16% |

Source: patent publication US12435059B2, “AMP-activated protein kinase inhibitors and methods of making and using the same” (The Regents of the University of Colorado, priority 2019, dated 2025)
